# Laboratory results from patent publication US20140248254A1, “THE USE OF ACHE AS NUCLEASE” (priority 2011, published 2014).
# Biological target: T1, DNase activity of AChE (Homo AChE protein) (Homo sapiens, UniProt P22303)
# T1 construct: AChE 1-547AA corresponding to human; AChE1-548AA corresponding to mouse; made in house
# Experiment: Effect of metal cations and chelators on DNase activity of Homo AChE
# Assay type: biochemical
# Details: 2.5 mM CaCl2, 5 mM MgCl2, 0.5 mM EGTA, 0.5 mM EDTA; 6 h
# Description: A. In the presence of 2.5 mM CaCl2, 5 mM MgCl2, 0.5 mM EGTA, 0.5 mM EDTA or the combination thereof, plasmid DNA (pEGFP-C1 plasmid) was incubated with Homo AChE protein for 6 h.
# Purified plasmid DNA was used as substrate for detection. In the experiment of cleaving of plasmid DNA, 0.15 μg of plasmid DNA with a transfection-grade purity (pEGFP-C1 plasmid, Clotech) was added to 10 μl buffer system containing (5.0 mM Tris-HCl, PH 7.5; 2.5 mM CaCl2; 5.0 mM MgCl2). 1 μg (or an amount indicated in Examples) of purified AChE proteins of human or mouse origin (AChE 1-547AA corresponding to human; AChE1-548AA corresponding to mouse) was further added, and incubated in 37° C. Sampling at 6 h (or timepoints indicated in Examples).
# T1 sequence (P22303 32-578): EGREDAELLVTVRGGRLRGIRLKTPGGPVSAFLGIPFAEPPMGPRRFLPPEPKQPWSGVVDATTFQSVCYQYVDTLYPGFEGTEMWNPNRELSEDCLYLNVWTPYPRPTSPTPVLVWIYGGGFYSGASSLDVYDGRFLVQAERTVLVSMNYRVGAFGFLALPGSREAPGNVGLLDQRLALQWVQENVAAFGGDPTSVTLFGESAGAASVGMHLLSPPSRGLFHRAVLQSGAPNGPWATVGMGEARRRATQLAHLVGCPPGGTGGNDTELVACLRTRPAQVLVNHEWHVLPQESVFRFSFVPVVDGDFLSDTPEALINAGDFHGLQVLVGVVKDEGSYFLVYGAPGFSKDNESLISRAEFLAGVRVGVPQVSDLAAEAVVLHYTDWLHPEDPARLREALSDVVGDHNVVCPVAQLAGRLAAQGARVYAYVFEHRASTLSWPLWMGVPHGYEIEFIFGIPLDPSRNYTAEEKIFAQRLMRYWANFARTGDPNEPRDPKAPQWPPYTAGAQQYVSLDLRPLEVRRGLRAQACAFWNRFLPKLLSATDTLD
smiles,measurement,value
O=C(O)CN(CCN(CC(=O)O)CC(=O)O)CC(=O)O [EDTA],effect on activity of AChE cleaving DNA,significantly inhibited
O=C(O)CN(CCOCCOCCN(CC(=O)O)CC(=O)O)CC(=O)O [EGTA],effect on activity of AChE cleaving DNA,not obvious
